The source of these data is the METLIN SMRT retention time set (Domingo-Almenara et al. 2019).

This data set is described as follows: gradient 5% acetonitrile 3 min, to 50% in 2 min, to 85% in 15 min, held 3 min, 100 µL/min. The settings on record: column: Zorbax Extend-C18 2.1 x 50 mm; eluents: water / acetonitrile, 0.1% formic acid. The method, boiled down: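 Retention time was recorded from adduct peaks, which were picked computationally and each inspected manually. Pure standards ran in mixtures of ~100 molecules on HPLC coupled to a quadrupole time-of-flight mass spectrometer, in positive and negative ionization mode, through a Zorbax Extend-C18 column (2.1 × 50 mm, 1.8 μm) at 100 μL/min. Eluents were water and acetonitrile, each with 0.1% formic acid.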
Turning to `CC(C)[C@@H](C(=O)NCCc1c[nH]c2ccc(F)cc12)n1nnc2ccccc2c1=O`, the RP-LC retention time came out at 874 s.
With `COc1ccc(C(=O)N2CCCn3cc(-c4ccccc4F)nc32)cn1` the figure was 587 s.
With `CCC1CN2C=Nc3oc(C)c(C(=O)Nc4ccc(F)cc4Br)c3C2=N1` (stereo not drawn) the figure was 682 s; with `Cn1c(-c2cccc(C(=O)N3CCN(c4ccccc4)CC3)c2)nc2cccnc21`, 736 s; with `CCCCNC(=O)c1cn(CC)nc1S(=O)(=O)N1CCN(c2ccccc2OCC)CC1`, 1080 s.
With `CC1(C(=O)NC2CCCCCCC2)CN(S(C)(=O)=O)CC(=O)N1c1ccc(F)cc1F` (stereo not drawn) the figure was 952 s.
With `COCC(=O)Oc1c(Sc2ccc(C)cc2)c(C)nn1-c1ccccc1`, the RP-LC retention time amounted to 854 s.
With `CNC(=O)C1CCCN(c2nc3ncn(CC(=O)Nc4cc(C)cc(C)c4)c(=O)c3s2)C1` (stereo not drawn) the figure was 694 s.
With `CCOC(=O)c1sc2nc(C)cc(C(F)(F)F)c2c1N` the figure was 1130 s.
In turn, `Cc1cc(OCC(=O)Nc2ccc(F)cc2)nc(N2CCN(c3ccccc3)CC2)n1` came in with an RP-LC retention time of 823 s.
As for `CCc1cc(N2CCN(C(=O)COc3ccccc3OC)CC2)nc2nncn12`, the figure is 601 s.
`CC(C)(c1cc(Cl)c(O)c(CN2CCOCC2)c1)c1cc(Cl)c(O)c(CN2CCOCC2)c1` came in with an RP-LC retention time of 630 s.
With `CC(C)=CC1C(C(=O)O)C1(C)C` (stereo not drawn) the figure was 808 s.
Molecule `Cc1cc(C)cc(Oc2nccn3c(=O)n(CC(=O)Nc4ccccc4Cl)nc23)c1` showed an RP-LC retention time of 963 s.
As for `O=C(O)c1nnn(-c2ccc(Cl)cc2)c1C(F)(F)F`, the figure is 828 s.
As for `CCOc1ccc(CNC(=O)c2snc(C(=O)NCc3ccccc3Cl)c2N)cc1OCC`, the figure is 1090 s; as for `COc1ccccc1N1CCN(CCN2C(=O)c3ccccc3C(C)(C)C2=O)CC1`, 787 s; as for `Cc1ccc(C(=O)Nc2nc(C)cc(C)c2-c2noc(C)n2)cc1`, 743 s.
As for `COCC(=O)N1CCCc2ccc(NC(=O)C3CC(=O)N(c4ccc(F)cc4)C3)cc21` (stereo not drawn), the figure is 681 s; as for `Cc1ccc(C)c(NC(=O)N2CCN(c3cc(-c4cccnc4)[nH]n3)CC2)c1`, 632 s; as for `COc1ccc(-c2ccnn2-c2ccc(SCC(=O)Nc3cc(C)ccc3C)nn2)cc1`, 1140 s.
Consider `Cc1ccc(C(=O)N2CCN(c3nnc4cccc(C)n34)CC2)cc1`, for which the RP-LC retention time was 670 s.
As for `CCOc1ccc(-c2noc(CN3N=NC4C(=O)N(c5ccc(F)cc5)C(=O)C43)n2)cc1OC` (stereo not drawn), the figure is 936 s; as for `O=C(Nc1ccc(Cl)cc1)N1CCCC1c1nc(-c2ccccc2)no1` (stereo not drawn), 1040 s; as for `CN1CCN(c2nc(C3=C(c4c[nH]c5ccccc45)C(=O)NC3=O)c3ccccc3n2)CC1`, 674 s.
As for `Cc1ccc(N(C)C(=O)c2cc(C)n3nc(-c4ccccn4)cc3n2)cc1`, the figure is 763 s; as for `Cc1cc(C(=O)Nc2nc3c(s2)CN(C(=O)c2cnn(-c4ccccc4)c2C)CC3)no1`, 712 s.
With `O=C(CCS(=O)(=O)c1ccccc1)NCc1cc(-c2ccccc2F)on1` the figure was 742 s; with `CCCCC(=O)N1CC(c2nc(-c3cccnc3)no2)C2(CCOCC2)C1` (stereo not drawn), 651 s; with `Cn1nnc2cc(C(=O)N3CCC(C(=O)NC4CCCc5ccccc54)CC3)ccc21` (stereo not drawn), 728 s.
`COc1ccc(-c2ncc3c(n2)CCN(S(=O)(=O)c2ccc(OC)cc2)C3)cc1` came in with an RP-LC retention time of 991 s.
With `Cc1cc(NC(=O)C2CCCN(C(=O)C3Sc4ccccc4NC3=O)C2)ccc1Br` (stereo not drawn) the figure was 901 s.
With `NC(=O)C1CCN(C(=O)Cc2cc(-c3ccco3)on2)CC1` the figure was 580 s; with `CCOc1ccc(N(C)C(=O)C2CCCN2S(=O)(=O)c2cc(C(=O)OC)n(C)c2)cc1` (stereo not drawn), 825 s.
With `COc1ccc(-c2nc3c(C)cccn3c2Nc2ccc(C)cc2)cc1` the figure was 736 s; with `Cc1noc(-c2ccc(-n3ncc(C(=O)NC4CCCCC4)c3C)nc2)n1`, 737 s.
In the case of `COc1cccc(NC(=O)Cn2c3ccccc3n3c(=O)cc(-c4ccc(F)cc4)nc23)c1`, the RP-LC retention time was 961 s.
With `CC(=O)N(C1CCOCC1)C1CCN(C(=O)c2ccc(C)s2)CC1` the figure was 673 s; with `O=S(=O)(NCC(O)c1ccc(C(F)(F)F)cc1)c1ccc2c(c1)CCCC2` (stereo not drawn), 984 s.
As for `COc1cccc(C(=O)N2CCC3(CC2)NC(=O)c2cc(F)ccc2N3C)c1`, the figure is 762 s; as for `O=C(Cc1ccccc1)N1CCN(c2cc(-c3cccs3)[nH]n2)CC1`, 765 s; as for `CCN(CC)CCNC(=O)Cn1ncc2c3ccccc3n(Cc3ccccc3)c2c1=O`, 605 s.
As for `CCn1c(N2CCCC(C(=O)NCCOC)C2)cc(=O)n(C)c1=O` (stereo not drawn), the figure is 646 s.
In turn, `COc1ccc(Nc2nc(-c3nnn(-c4cc(Cl)c(OC)cc4OC)c3C)ns2)cc1` showed an RP-LC retention time of 1020 s.
Molecule `Cc1cc(C)c(NC(=O)Cn2ncc3c(N4CCN(c5ccccn5)CC4)ncnc32)c(C)c1` showed an RP-LC retention time of 620 s.
As for `O=C(Nc1ccsc1-c1nnc(C2CC2)o1)c1ccoc1`, the figure is 1080 s.
With `COc1ccc(C2C(=O)N(C3CCCCC3)CC(=O)N2Cc2ccc3c(c2)OCO3)cc1OC` (stereo not drawn) the figure was 894 s.
With `O=C(Nc1cccc(F)c1)C1CCc2nc(N3CCCCC3)ncc2C1` (stereo not drawn) the figure was 800 s.
Regarding `CCOc1ccc(-c2nc(C#N)c(N3CCN(C(=O)c4ccccc4Cl)CC3)o2)cc1`, the RP-LC retention time amounted to 986 s.
As for `CCC(C)NC(=O)c1ccc2c(c1)Sc1ncccc1C(=O)N2CC` (stereo not drawn), the figure is 749 s; as for `Cc1cccn2c(=O)c3cc(C(=O)NCCc4ccc(S(N)(=O)=O)cc4)n(C)c3nc12`, 757 s.
`O=C(NC1CCCCC1)c1cc2n(n1)CCCN(Cc1ccccc1)C2=O`: the RP-LC retention time stood at 891 s.
Take `Cc1ccc(-c2ccc(N3CCCC(C(=O)NCC(C)C)C3)nn2)cc1C` (stereo not drawn): the RP-LC retention time was found to be 737 s.
Consider `COCCN1CC(CO)C2(CCN(Cc3ccc(Cl)c(F)c3)CC2)C1` (stereo not drawn), for which the RP-LC retention time was found to be 555 s.
With `COc1ccc(-c2cn3c(CC(=O)Nc4nccs4)csc3n2)cc1OC` the figure was 653 s; with `CC1CCN(C(=O)Cn2c(=O)c3cccn3c3ccc(F)cc32)CC1`, 855 s; with `Cc1ccc(-c2cc3c(=O)n(Cc4nc(-c5ccc6c(c5)OCO6)no4)ncn3n2)c(C)c1`, 1170 s.
As for `COc1cc(NC(=O)Nc2nccn(-c3ccc(C)c(C)c3)c2=O)cc(OC)c1`, the figure is 955 s.
Molecule `CCc1noc(-c2ccnc(-n3cnc(C(=O)NCC(C)C)c3)c2)n1` gave an RP-LC retention time of 983 s.
As for `CC(C)CN1C(=O)c2ccccc2C(C(=O)NCCN2CCN(C)CC2)C1c1cccs1` (stereo not drawn), the RP-LC retention time came to 617 s.
As for `CCc1ccc(NC(=O)CSc2nnc3c4cc(-c5ccc(F)cc5)nn4ccn23)cc1`, the figure is 984 s; as for `CCc1ccc(Oc2cc(N3CCC(C(=O)NCCC4=CCCCC4)CC3)ncn2)cc1`, 1150 s; as for `Cc1cccc(N2C(=O)N(Cc3cccc(F)c3)S(=O)(=O)c3cccnc32)c1`, 1090 s.
With `CCCc1ccc(S(=O)(=O)N(C)CC2CCOCC2)cc1` the figure was 1020 s.
As for `COc1ccc(NC(=O)c2cc(C(C)C)n(C3CCS(=O)(=O)C3)n2)cc1` (stereo not drawn), the figure is 831 s; as for `CC(Oc1ccccc1Cl)C(=O)NCCn1nc(-n2cccn2)ccc1=O` (stereo not drawn), 710 s; as for `Cc1ccc(C(=O)Nc2nc3c(s2)CN(S(=O)(=O)c2ccccc2)CC3)cc1Br`, 1110 s.
Molecule `Cc1cc(Cl)ccc1NC(=O)N1C[C@@H]2C[C@H](NS(=O)(=O)c3ccccc3)[C@H]1C2` displayed an RP-LC retention time of 922 s.
With `O=C(NCCCN1CCCC1=O)c1nc(Nc2ccc(F)cc2)c2ccccc2n1` the figure was 636 s.
As for `CC1SC(C)C(=O)N(CC(=O)NCc2ccco2)C1=O` (stereo not drawn), the figure is 685 s; as for `Cc1cc(C)cc(NS(=O)(=O)c2c(C)sc(C)c2-c2cc(C)[nH]n2)c1`, 1100 s.
With `Cn1nc(N2CCC(NC(=O)CCn3cnnn3)CC2)ccc1=O` the figure was 566 s; with `CCn1cnc2ccc(-c3noc(-c4ccc(OC)cc4)n3)cc21`, 753 s; with `O=c1n(Cc2ccccc2)nc2c(S(=O)(=O)N3CCOCC3)cccn12`, 721 s.
`COc1cccc(N2CCN(S(=O)(=O)c3cccc(-c4nc(-c5ccccc5)no4)c3)CC2)c1` registered an RP-LC retention time of 1290 s.
As for `O=c1c2nc(-c3cccc(Cl)c3)cn2ccn1-c1ccc(F)cc1`, the figure is 864 s; as for `O=C(NCC1Cn2cccc2C(=O)N1Cc1ccccc1)NC1CCCC1` (stereo not drawn), 734 s.
As for `O=C1NC2(CCN(C(=O)NCc3ccccc3)CC2)Oc2ccccc21`, the figure is 963 s.
